Measured values reported in US11952365B2, “Anti-viral compounds” (Aligos Therapeutics, Inc., priority 2020, dated 2024).
Where two headings read alike, the source gives them in different places.

How the values were obtained:
[1] = Cytotoxicity plates without OC43 virus (cell-titer-glo); type: cell-based, human; conditions: human; HeLa cells without OC43 virus, class symbols
Procedure, shortened: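 Run as a virus-free counterpart of the OC43 cytopathic-effect assay. Attached HeLa cells received compound dilutions in EMEM with 2% FBS and were kept 6 days at 33 °C. Cell viability was then measured by CellTiter-Glo luminescence.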

in vitro [2] = conditions: human
3CLpro = 3CLpro (Severe acute respiratory syndrome coronavirus 2, UniProt P0DTD1); assay: SARS-CoV-2 3CLpro protease assay (duplex, SAMDI-MS); type: biochemical; parameters: For the duplex assay, 3CLpro and HRV3C was added; conditions: 30 mins preincubation
HRV3C = HRV3C (Human rhinovirus 14, UniProt P03303); assay: HRV3C protease assay (duplex, SAMDI-MS); type: biochemical, HRV; conditions: 30 mins preincubation
Procedure, shortened: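 HRV3C was preincubated 30 min with compound alongside 3CLpro at ambient temperature, then two biotinylated peptide substrates were added for 30 min. Quenching used 0.5% formic acid (final). Cleaved product was captured on neutravidin SAMDI arrays and quantified by MALDI-TOF as product/internal-standard AUC ratio; IC50 from four-parameter fit.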

human cathepsin L = target: T1, human cathepsin L (Homo sapiens, UniProt P07711); assay: cathepsin L assay; type: biochemical; conditions: 10 pM human cathepsin L, Z-FR-AMC 2 μM, class symbols
T1 construct: purchased R&D Systems
Procedure, shortened: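 Reactions began by adding 2 μM (final) Z-FR-AMC substrate to 10 pM human cathepsin L that had been preincubated 30 min with inhibitor. Kinetic AMC fluorescence at 355/460 nm over 30 min at 2-min intervals; four-parameter fitting gave IC50 values.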

[3] = system: human beta-coronavirus OC43; assay: microbe, parasite or virus in culture; type: cell-based; conditions: Betacoronavirus 1, OC43, HeLa, 144 h
[4] = system: SARS-CoV-2-GHB-03021/2020; assay: microbe, parasite or virus in culture; type: cell-based
[5] = system: SARS-CoV-2-GHB-03021/2020; assay: SARS-CoV-2 Infection Model in Huh7 Cells; type: cell-based; conditions: Severe acute respiratory syndrome coronavirus 2, Huh-7, 96 h, SARS-CoV-2, day 4 p.i., MTS
in vitro [6] = conditions: African green monkey, VeroE6 + CP (CC50)
[7] = 3CLpro, class symbols, read-out: SARS-Cov-2 IC50
[8] = HRV3C, class symbols, read-out: HRV IC50
[9] = OC43 in HeLa cells, 6 days at 33° C., class symbols, read-out: EC50
[10] = Severe acute respiratory syndrome coronavirus 2, Vero C1008, 96 h; read-out: VeroE6 + CP (EC50)
[11] = Vero E6-eGFP cells with CP-100356, absence of virus, MTS, numeric bounds
[12] = Vero E6-eGFP cells with CP-100356, absence of virus, MTS, class symbols
[13] = HRV3C, bound, read-out: HRV IC50
[14] = OC43 in HeLa cells, 6 days at 33° C., bound, read-out: EC50

Row | SMILES | CC50 at 6 days [1] | CC50 (in vitro [2]) | IC50 (3CLpro; [7]) | IC50 (HRV3C; [8]) | IC50 (human cathepsin L) | EC50 [3, 9] | EC50 [4, 10] | EC50 ([5]; numeric bounds) | CC50 (in vitro [6]; [11]) | EC50 ([5]; class symbols) | CC50 (in vitro [6]; [12]) | IC50 (HRV3C; [13]) | IC50 (3CLpro; 3CLpro, bound, read-out: SARS-Cov-2 IC50) | EC50 [3, 14] | IC50 (HRV3C; HRV IC50, HRV3C, bound) | CC50 (in vitro [6]) | IC50 (3CLpro; SARS-Cov-2 IC50, 3CLpro, class symbols) | EC50 ([4]; Severe acute respiratory syndrome coronavirus 2, Vero C1008, 96 h, read-out: VeroE6 + CP (EC50)) | EC50 [3]
1 | O=C(NCc1ccccc1)C(=O)[C@H](C[C@@H]1CCNC1=O)NC(=O)[C@@H]1C[C@@H](C2CCCCC2)CN1C(=O)c1cc2ccccc2[nH]1 [Compound 20] | > 10 µM | 1 to 10 µM | 0.2 to 2 µM | 0.2 to 2 µM | ≥ 10 µM | < 0.1 µM | 1 to 10 µM | > 100 µM | – | – | – | – | – | – | – | – | – | – | –
2 | O=C(NC1CC1)C(=O)[C@H](C[C@@H]1CCNC1=O)NC(=O)[C@@H]1CC2(CCN1C(=O)c1cc3c(C4CC4)cccc3[nH]1)CC2 [Compound 180] | – | > 10 µM | 0.02 to 0.2 µM | 0.2 to 2 µM | 1 to 10 µM | – | 1 to 10 µM | – | > 50 µM | 1 to 10 µM | – | – | – | – | – | – | – | – | –
3 | COc1cccc2[nH]c(C(=O)N3CCC4(CC4)C[C@H]3C(=O)N[C@@H](C[C@@H]3CCNC3=O)C(=O)C(=O)NC3CC3)cc12 [Compound 179] | – | > 10 µM | < 0.02 µM | 0.2 to 2 µM | 1 to 10 µM | – | 10 to 100 µM | > 10 µM | > 50 µM | – | – | – | – | – | – | – | – | – | –
4 | O=C(NC1CC1)C(=O)[C@H](C[C@@H]1CCNC1=O)NC(=O)[C@@H]1CC2(CCN1C(=O)c1cc3ccccc3o1)CC2 [Compound 181] | – | > 10 µM | 0.02 to 0.2 µM | 0.2 to 2 µM | 1 to 10 µM | – | 1 to 10 µM | – | > 50 µM | 1 to 10 µM | – | – | – | – | – | – | – | – | –
5 | CC(C)CCCNC(=O)C(=O)[C@H](C[C@@H]1CCNC1=O)NC(=O)[C@@H]1[C@H]2CCC[C@H]2CN1C(=O)c1cc2c(Cl)cc(Cl)cc2[nH]1 [Compound 183] | – | 1 to 10 µM | 0.02 to 0.2 µM | – | 1 to 10 µM | – | < 1 µM | – | – | 1 to 10 µM | 1 to 10 µM | > 10 µM | – | – | – | – | – | – | –
6 | N#Cc1cccc2[nH]c(C(=O)N3C[C@@H]4CCC[C@@H]4[C@H]3C(=O)NC(C[C@@H]3CCNC3=O)C(=O)COCc3ccccc3)cc12 (stereo partly drawn) [Compound 66A, (1S,3aR,6aS)—N-[4-(benzyloxy)-3-oxo-1-[(3S)-2-oxopyrrolidin-3-yl]butan-2-yl]-2-(4-cyano-1H-indole-2-carbonyl)-hexahydro-1H-cyclopenta[c]pyrrole-1-carboxamide] | > 10 µM | > 10 µM | 0.2 to 2 µM | – | ≥ 10 µM | 0.1 to 1 µM | – | – | – | 1 to 10 µM | – | > 10 µM | – | – | – | – | – | – | –
7 | COc1c(Cl)ccc2[nH]c(C(=O)N3C[C@@H]4CCC[C@@H]4[C@H]3C(=O)N[C@@H](C[C@@H]3CCNC3=O)C(=O)CO)cc12 [Compound 68, (1S,3aR,6aS)-2-(5-chloro-4-methoxy-1H-indole-2-carbonyl)-N—((S)-4-hydroxy-3-oxo-1-((S)-2-oxopyrrolidin-3-yl)butan-2-yl)octahydrocyclopenta[c]pyrrole-1-carboxamide] | > 10 µM | > 100 µM | 0.02 to 0.2 µM | – | ≥ 10 µM | 0.1 to 1 µM | – | – | – | 1 to 10 µM | – | > 10 µM | – | – | – | – | – | – | –
8 | O=C(NCc1ccccc1)C(=O)[C@H](Cc1ccncc1)NC(=O)[C@@H]1CC2(CC2)CN1C(=O)c1cc2ccccc2[nH]1 [Compound 112] | > 10 µM | > 10 µM | – | – | 1 to 10 µM | – | – | > 100 µM | – | – | – | > 10 µM | > 10 µM | > 10 µM | – | – | – | – | –
9 | COCC(=O)[C@H](C[C@@H]1CCNC1=O)NC(=O)[C@@H]1[C@H]2CCC[C@H]2CN1C(=O)c1cc2c(OC)cccc2[nH]1 [Compound 71, (1S,3aR,6aS)-2-(4-methoxy-1H-indole-2-carbonyl)-N-[(2S)-4-methoxy-3-oxo-1-[(3S)-2-oxopyrrolidin-3-yl]butan-2-yl]-hexahydro-1H-cyclopenta[c]pyrrole-1-carboxamide] | > 10 µM | > 100 µM | 0.2 to 2 µM | – | ≥ 10 µM | 0.1 to 1 µM | – | – | – | 1 to 10 µM | – | – | – | – | > 10 µM | – | – | – | –
10 | COc1ccnc2[nH]c(C(=O)N3C[C@@H]4CCC[C@@H]4[C@H]3C(=O)N[C@@H](C[C@@H]3CCNC3=O)C(=O)CO)cc12 [Compound 67, (1S,3aR,6aS)—N-[(2S)-4-hydroxy-3-oxo-1-[(3S)-2-oxopyrrolidin-3-yl]butan-2-yl]-2-{4-methoxy-1H-pyrrolo[2,3-b]pyridine-2-carbonyl}-hexahydro-1H-cyclopenta[c]pyrrole-1-carboxamide] | > 10 µM | > 100 µM | 0.02 to 0.2 µM | – | ≥ 10 µM | 1 to 10 µM | – | – | – | 10 to 100 µM | – | > 10 µM | – | – | – | – | – | – | –
11 | O=C(NCCCC(F)(F)F)C(=O)[C@H](C[C@@H]1CCNC1=O)NC(=O)[C@@H]1[C@H]2CCC[C@H]2CN1C(=O)c1cc2c(Cl)cc(Cl)cc2[nH]1 [Compound 182] | – | 1 to 10 µM | 0.2 to 2 µM | – | ≥ 10 µM | – | 1 to 10 µM | > 10 µM | – | – | > 10 µM | > 10 µM | – | – | – | – | – | – | –
12 | COc1cccc2[nH]c(C(=O)N3C[C@@H]4CCC[C@@H]4[C@H]3C(=O)NC(C[C@@H]3CCNC3=O)C(=O)C(N)=O)cc12 (stereo partly drawn) [Compound 56, 3-{[(1S,3aR,6aS)-2-(4-methoxy-1H-indole-2-carbonyl)-hexahydro-1H-cyclopenta[c]pyrrol-1-yl]formamido}-2-oxo-4-[(3S)-2-oxopyrrolidin-3-yl]butanamide] | > 10 µM | > 100 µM | 0.02 to 0.2 µM | 0.2 to 2 µM | ≥ 10 µM | 10 to 100 µM | – | – | – | 10 to 100 µM | – | – | – | – | – | – | – | – | –
13 | CS(=O)(=O)c1cccc2[nH]c(C(=O)N3C[C@@H]4CCC[C@@H]4[C@H]3C(=O)N[C@@H](C[C@@H]3CCNC3=O)C(=O)CO)cc12 [Compound 150, (1S,3aR,6aS)—N-[(2S)-4-hydroxy-3-oxo-1-[(3S)-2-oxopyrrolidin-3-yl]butan-2-yl]-2-(4-methanesulfonyl-1H-indole-2-carbonyl)-hexahydro-1H-cyclopenta[c]pyrrole-1-carboxamide] | > 10 µM | > 50 µM | – | – | ≥ 10 µM | – | – | > 50 µM | – | – | – | – | – | > 10 µM | – | > 50 µM | 0.2 to 2 µM | > 50 µM | –
14 | COc1cccc2[nH]c(C(=O)N3C[C@@H]4CCC[C@@H]4[C@H]3C(=O)N[C@@H](CN3C[C@H](O)CC3=O)C(=O)C(=O)NC3CC3)cc12 [Compound 178] | – | > 10 µM | 2 to 20 µM | – | ≥ 10 µM | – | > 50 µM | > 10 µM | > 50 µM | – | – | > 10 µM | – | – | – | – | – | – | –
15 | N#Cc1cccc2[nH]c(C(=O)N3C[C@@H]4CCC[C@@H]4[C@H]3C(=O)N[C@@H](C[C@@H]3CCNC3=O)C(=O)CO)cc12 [Compound 66, (1S,3aR,6aS)-2-(4-cyano-1H-indole-2-carbonyl)-N-[(2S)-4-hydroxy-3-oxo-1-[(3S)-2-oxopyrrolidin-3-yl]butan-2-yl]-hexahydro-1H-cyclopenta[c]pyrrole-1-carboxamide] | > 10 µM | > 100 µM | 0.02 to 0.2 µM | – | ≥ 10 µM | 1 to 10 µM | – | – | – | 10 to 100 µM | – | > 10 µM | – | – | – | – | – | – | –
16 | O=C(NCc1ccccc1)C(=O)[C@H](Cc1cc[nH]n1)NC(=O)[C@@H]1CC2(CC2)CN1C(=O)c1cc2ccccc2[nH]1 [Compound 96, (S)—N—((S)-4-(benzylamino)-3,4-dioxo-1-(1H-pyrazol-3-yl)butan-2-yl)-5-(1H-indole-2-carbonyl)-5-azaspiro[2.4]heptane-6-carboxamide] | > 10 µM | > 10 µM | 2 to 20 µM | – | 1 to 10 µM | – | – | > 100 µM | – | – | – | – | – | – | > 10 µM | – | – | – | 1 to 10 µM
17 | COc1cccc2oc(C(=O)N3C[C@@H]4CCC[C@@H]4[C@H]3C(=O)N[C@@H](C[C@@H]3CCNC3=O)C(=O)CO)cc12 [Compound 94, (1S,3aR,6aS)—N-[(2S)-4-hydroxy-3-oxo-1-[(3S)-2-oxopyrrolidin-3-yl]butan-2-yl]-2-(4-methoxy-1-benzofuran-2-carbonyl)-hexahydro-1H-cyclopenta[c]pyrrole-1-carboxamide] | > 10 µM | > 100 µM | 0.2 to 2 µM | – | ≥ 10 µM | 1 to 10 µM | – | – | – | 10 to 100 µM | – | > 10 µM | – | – | – | – | – | – | –
